Measurements from US6521283B1, “Non-thrombogenic surfaces” (Biocompatibles Limited, priority 1990, dated 2003).
Values joined by “and” are separate entries in the source; they are usually repeats but may differ in a detail not shown here. Identical values can stand only once. Marks after values point to notes of the source that are not given here.

What was measured:
platelets = assay: quantitative platelet adhesion test (ATP luminometry) in fresh citrated whole human blood; type: cell-based
Description: A quantitative platelet adhesion test was carried out by immersing samples in fresh citrated whole human blood at room temperature for 30 minutes. Tubing samples were prepared in 3 cm lengths sealed at both ends (the blood being introduced into the sample by hypodermic needle), and constantly mixed using a spiral mixer (tests were carried out in triplicate). Blood used in this assay was obtained using the double syringe method.
After incubation the samples were washed in isotonic phosphate buffered saline (PBS) and extracted into 1% trichloro acetate (TCA) (w/v) in 2 mM ethylene diamine tetraacetic acid (EDTA) to liberate ATP from any platelets adhering to the walls of the tubing.
The amount of ATP present in the extractant was estimated using the LKB Pharmacia ATP assay kit and a luminometer.
The number of platelets adhering to the samples was estimated from a standard curve using ATP levels associated with a known number of platelets.

recalcified blood = assay: in-use simulation: recalcified blood incubated in catheter segments, clot formation; parameters: species or system human; conditions: 15 cm catheter segment, frosted region, coated according to Example 2, 37° C., 150 minutes
Description: Three 15 cm segments of catheter (frosted region) coated according to Example 2 were prepared with the ends sealed using Eppendorf tubes. 40 ml of blood was collected from an adult volunteer into tri-sodium citrate (32 g/l) using the double syringe technique (the first 5 ml were discarded). 2 ml of 0.025 M calcium chloride in 0.15 M sodium chloride was added to 10 ml of citrated blood. 4 ml of recalcified blood was then added to each of the three catheter segments. The tubes were placed in a 37° C. incubator for 150 minutes. The samples were turned every 30 minutes. After this incubation the blood was drained from each of the catheters. They were then rinsed using PBS to remove any loosely bound material.

[1] = system: blood cells / platelet cells; assay: haemocompatibility of suture materials by scanning electron microscopy after incubation in whole blood; type: cell-based, human; conditions: braided polyester yarn suture material coated at 10 mg/ml (Example 3)
Description: Samples of the braided material treated according to Example 3 were incubated in fresh, citrated whole blood as described in Example 10 above. After removal from the blood these materials were washed using PBS and prepared for scanning electron microscopy by fixing in an aliquot of the following solution:
83 ml 0.15 M PBS (pH 7.4) 15 ml saturated picric acid
The samples were washed in PBS and dehydrated using 70% ethanol, followed by absolute ethanol. Finally samples were sputter coated with gold (at 30 mA for 3 minutes) and observed under the electron microscope.

[2] = wettability: static contact angles with distilled water drops; type: physicochemical; conditions: for Contact angles (°) (average) / Contact angles (°), single readings: distilled water drops after 5 minutes
Description: The wettability of materials coated with DPPC according to the preceding examples was assessed by measurement of static contact angles using distilled water drops after 5 minutes in contact with the surface.

[3] = FEP IV catheters treated at 10 mg/ml in ethanol (Example 8)
[4] = PE (polyethylene) treated at 10 mg/ml
[5] = PVC thoracic drain catheter, clear region, coated at 10 mg/ml (Example 2)
[6] = PVC thoracic drain catheter, frosted region, coated at 10 mg/ml (Example 2)
[7] = hard PVC tubing coated with 5 mg/ml solution (Example 1)
[8] = hard PVC tubing coated with 10 mg/ml solution (Example 1)
[9] = polypropylene hollow fibre membrane treated at 2 mg/ml (Example 7)
[10] = polypropylene hollow fibre membrane treated at 10 mg/ml (Example 7)
[11] = polypropylene hollow fibre membrane treated at 10 mg/ml (Example 7), includes outlier
[12] = polystyrene petri dish spin-coated at 10 mg/ml (Example 4)
[13] = soft PVC tubing coated with 5 mg/ml solution (Example 1)
[14] = soft PVC tubing coated with 10 mg/ml solution (Example 1)
[15] = PVC thoracic drain catheter coated as Ex. 2 at 10 mg/ml
[16] = polyethylene coated as Ex. 5 at 10 mg/ml
[17] = soft PVC tubing coated as Ex. 1

CCCCCCCCCCCCCCCC(=O)OC[C@H](COP(=O)([O-])OCC[N+](C)(C)C)OC(=O)CCCCCCCCCCCCCCC [DPPC, dipalmitoyl phosphatidyl choline]
% Reduction (platelet adhesion vs untreated catheters) (platelets; [3]): 65% | platelets adhered, DONOR 1 (platelets; [3]): 1.89 platelets ×10^6 per 5 cm length of catheter | platelets adhered, DONOR 2 (platelets; [3]): 1.24 platelets ×10^6 per 5 cm length of catheter | platelets adhered, DONOR 3 (platelets; [3]): 5.84 platelets ×10^6 per 5 cm length of catheter | platelets adhered, X̄ (mean of donors) (platelets; [3]): 2.99 platelets ×10^6 per 5 cm length of catheter | % Reduction (platelet adhesion vs uncoated PE) (platelets; [4]): 94% | platelets adhered, DONOR 1 (platelets; [4]): 1.58 no. of platelets ×10^6 per 22 mm^2 area of material | platelets adhered, DONOR 2 (platelets; [4]): 3.76 no. of platelets ×10^6 per 22 mm^2 area of material | platelets adhered, DONOR 3 (platelets; [4]): 1.72 no. of platelets ×10^6 per 22 mm^2 area of material | platelets adhered, X̄ (mean of donors) (platelets; [4]): 2.35 no. of platelets ×10^6 per 22 mm^2 area of material | % Reduction (platelet adhesion vs uncoated) (platelets; [5]): 97% | platelets adhered, DONOR 1 (platelets; [5]): 0.53 platelets adhered ×10^6 per 3 cm lengths of catheters | platelets adhered, DONOR 2 (platelets; [5]): 1.38 platelets adhered ×10^6 per 3 cm lengths of catheters | platelets adhered, DONOR 3 (platelets; [5]): 0.60 platelets adhered ×10^6 per 3 cm lengths of catheters | platelets adhered, X̄ (mean of donors) (platelets; [5]): 0.84 platelets adhered ×10^6 per 3 cm lengths of catheters | % Reduction (platelet adhesion vs uncoated) (platelets; [6]): 87% | platelets adhered, DONOR 1 (platelets; [6]): 0.88 platelets adhered ×10^6 per 3 cm lengths of catheters | platelets adhered, DONOR 2 (platelets; [6]): 1.05 platelets adhered ×10^6 per 3 cm lengths of catheters | platelets adhered, DONOR 3 (platelets; [6]): 0.59 platelets adhered ×10^6 per 3 cm lengths of catheters | platelets adhered, X̄ (mean of donors) (platelets; [6]): 0.84 platelets adhered ×10^6 per 3 cm lengths of catheters | platelet adhesion to coated PVC / thrombogenicity of PVC tubing (platelets; PVC tubing coated according to Example 1): large reduction in the thrombogenicity | % Reduction (platelet adhesion vs uncoated control) (platelets; [7]): 94% | platelets adhered, DONOR 2 (platelets; [7]): 0.13 no. of platelets ×10^6 per 3 cm lengths of tubing | platelets adhered, DONOR 3 (platelets; [7]): 0.19 no. of platelets ×10^6 per 3 cm lengths of tubing | platelets adhered, X̄ (mean of donors) (platelets; [7]): 0.35 no. of platelets ×10^6 per 3 cm lengths of tubing | platelets adhered, DONOR 1 (platelets; hard PVC tubing coated with 5 mg/ml solution (Example 1), 30 min, room temperature): 0.72 no. of platelets ×10^6 per 3 cm lengths of tubing | % Reduction (platelet adhesion vs uncoated control) (platelets; [8]): 97% | platelets adhered, DONOR 1 (platelets; [8]): 0.51 no. of platelets ×10^6 per 3 cm lengths of tubing | platelets adhered, DONOR 2 (platelets; [8]): 0.14 no. of platelets ×10^6 per 3 cm lengths of tubing | platelets adhered, DONOR 3 (platelets; [8]): 0.10 no. of platelets ×10^6 per 3 cm lengths of tubing | platelets adhered, X̄ (mean of donors) (platelets; [8]): 0.25 no. of platelets ×10^6 per 3 cm lengths of tubing | % Reduction (platelet adhesion vs untreated) (platelets; [9]): 91% | platelets adhered, DONOR 1 (platelets; [9]): 0.91 no. of platelets ×10^6 per 20 cm length of fibre | platelets adhered, DONOR 2 (platelets; [9]): 0.89 no. of platelets ×10^6 per 20 cm length of fibre | platelets adhered, DONOR 3 (platelets; [9]): 0.53 no. of platelets ×10^6 per 20 cm length of fibre | platelets adhered, X̄ (mean of donors) (platelets; [9]): 0.78 no. of platelets ×10^6 per 20 cm length of fibre | platelets adhered, DONOR 1 (platelets; [10]): 0.41 no. of platelets ×10^6 per 20 cm length of fibre | platelets adhered, DONOR 3 (platelets; [10]): 0.52 no. of platelets ×10^6 per 20 cm length of fibre | % Reduction (platelet adhesion vs untreated) (platelets; [11]): 56% | platelets adhered, X̄ (mean of donors) (platelets; [11]): 3.67 no. of platelets ×10^6 per 20 cm length of fibre | platelets adhered, DONOR 2 (platelets; polypropylene hollow fibre membrane treated at 10 mg/ml (Example 7), result thought to be an outlier): 10.08* no. of platelets ×10^6 per 20 cm length of fibre | % Reduction (platelet adhesion vs uncoated) (platelets; [12]): 92% | platelets adhered, DONOR 1 (platelets; [12]): 5.54 no. of platelets ×10^6 adhered per petri dish (50 mm diameter) | platelets adhered, DONOR 2 (platelets; [12]): 3.55 no. of platelets ×10^6 adhered per petri dish (50 mm diameter) | platelets adhered, DONOR 3 (platelets; [12]): 3.08 no. of platelets ×10^6 adhered per petri dish (50 mm diameter) | platelets adhered, X̄ (mean of donors) (platelets; [12]): 4.06 no. of platelets ×10^6 adhered per petri dish (50 mm diameter) | % Reduction (platelet adhesion vs uncoated control) (platelets; [13]): 96% | platelets adhered, DONOR 1 (platelets; [13]): 0.76 no. of platelets ×10^6 per 3 cm lengths of tubing | platelets adhered, DONOR 2 (platelets; [13]): 0.72 no. of platelets ×10^6 per 3 cm lengths of tubing | platelets adhered, DONOR 3 (platelets; [13]): 0.30 no. of platelets ×10^6 per 3 cm lengths of tubing | platelets adhered, X̄ (mean of donors) (platelets; [13]): 0.59 no. of platelets ×10^6 per 3 cm lengths of tubing | % Reduction (platelet adhesion vs uncoated control) (platelets; [14]): 90% | platelets adhered, DONOR 1 (platelets; [14]): 0.97 no. of platelets ×10^6 per 3 cm lengths of tubing | platelets adhered, DONOR 2 (platelets; [14]): 1.89 no. of platelets ×10^6 per 3 cm lengths of tubing | platelets adhered, DONOR 3 (platelets; [14]): 1.25 no. of platelets ×10^6 per 3 cm lengths of tubing | platelets adhered, X̄ (mean of donors) (platelets; [14]): 1.37 no. of platelets ×10^6 per 3 cm lengths of tubing | drainage of blood and clot remaining in catheter (recalcified blood): blood drained easily. One small clot remained attached to the surface | activation of platelet cells (electron microscopy) [1]: platelet cells are not activated | adhesion of blood cells (electron microscopy) [1]: adhere fewer blood cells than untreated materials | thrombogenicity vs untreated braided yarns [1]: appear less thrombogenic | Contact angles (°) (average) [2, 15]: 24 ° | Contact angles (°), single readings [2, 15]: 26 ° and 19 ° | Conclusion (wettability) [2, 16]: Wettable surface | Contact angles (°) (average) [2, 16]: 15 ° | Contact angles (°), single readings [2, 16]: 12 ° and 21 ° | Conclusion (wettability) [2, 17]: Wettable surface | Contact angles (°) (average) [2, 17]: 8 ° | Contact angles (°), single readings [2, 17]: 9 ° and < 5 ° and 10 °
